Assay results: US4232017A, “Treatment of psychic disorders and inflammation with fused isoquinolines” (Gruppo Lepetit S.p.A., priority 1978, dated 1980)
Where two headings read alike, the source gives them in different places.

How the values were obtained:
[1] = Acute toxicity (LD50) in mice, i.p.; conditions: mouse, in vivo, ip
Description: (§1) Moreover, they display a considerably low toxicity as, generally, their LD50 values are never lower than 600 mg/Kg when given i.p. and never lower than 1000 mg/Kg when given orally to mice.

[2] = Acute toxicity (LD50) in mice, oral; conditions: mouse, in vivo, p.o.
Description: as §1

[3] = tested on: rats; test: pole climbing avoidance test (antianxiety activity; Maffii); type: in vivo; conditions: for responders at 60 mg/kg / responders at 15 mg/kg / responders at 30 mg/kg / responders at 10 mg/kg: Rattus norvegicus, ip; for responders at 60 mg/kg: 60 mg/Kg i.p.; for responders at 15 mg/kg: 15 mg/Kg i.p.; for responders at 30 mg/kg: 30 mg/Kg i.p.; for influence on the CR and the UR: i.p., about 15 to about 60 mg/Kg; for responders at 10 mg/kg: 10 mg/Kg i.p.
Description: The CNS-depressant activity in mammals was investigated by means of the general psychophysic screening method, as described by S. Irwin in Psychopharmacologia (Berl.), 13, 222-257, 1968. […] It is to be noted that the above parameters are directly connected with sedative, hypnotic and miorelaxing properties. The antianxiety activity of the compounds of the invention was investigated by means of the "pole climbing avoidance test", performed as described by G. Maffii in Journ. Pharm. Pharmacol., 11, 129, 1959, wherein a conditioned animal (generally a rat) is deconditioned i.e., is brought to its normal psychic behavior by administration of a suitable amount of the compound to be tested. According to G. Maffii, an inhibition of the secondary conditioned response (CR2) without a contemporary or coupled with a not significant inhibition of the primary conditioned response (CR) and the unconditioned response (UR) is a clear indication of an antianxiety effect since these last two parameters are connected with sedative and hypnotic properties.

[4] = tested on: carrageenin induced edema in rats; test: carrageenin induced edema test (Winter et al.); type: in vivo; conditions: for significant reduction of the edema over the control: oral, about 1/5 to about 1/10 of the LD50
Description: As stated above, the compounds of the invention show also a remarkable antiinflammatory action, which was ascertained by means of the "carrageenin induced edema test" in rats. Said test was performed according to the operative scheme proposed by C. A. Winter et al., Proc., Soc. Exptl.

[5] = read-out: CR2 (secondary conditioned response), Decond./Conditioned
[6] = read-out: CR (primary conditioned response), Decond./Conditioned
[7] = read-out: UR (unconditioned response), Decond./Conditioned

| Structure (SMILES) | LD50 [1] | LD50 [2] | responders at 60 mg/kg [3, 5] | responders at 60 mg/kg [3, 6] | responders at 60 mg/kg [3, 7] | % Decrease of the induced edema ([4]; 50 mg/kg p.o.) | % Decrease of the induced edema ([4]; 100 mg/kg p.o.) | % Decrease of the induced edema ([4]; 200 mg/kg p.o.) | significant reduction of the edema over the control [4] | % Decrease of the induced edema ([4]; 20 mg/kg p.o.) | responders at 15 mg/kg [3, 5] | responders at 15 mg/kg [3, 6] | responders at 15 mg/kg [3, 7] | responders at 30 mg/kg [3, 5] | responders at 30 mg/kg [3, 6] | responders at 30 mg/kg [3, 7] | influence on the CR and the UR [3] | responders at 10 mg/kg [3, 5] | responders at 10 mg/kg [3, 6] | responders at 10 mg/kg [3, 7] |
| --- | --- | --- | --- | --- | --- | --- | --- | --- | --- | --- | --- | --- | --- | --- | --- | --- | --- | --- | --- | --- |
| CCCCn1c(=O)c2ccccc2c2nc(C)sc21 [5(N-isomer), 4-Butyl-2-methyl-thiazolo[5,4-c]isoquinoline-5(4H)-one] | 600 mg/kg | > 1000 mg/kg | 50% | 0% | 0% | 28% | 37% | 51% | ≥ 40% | – | – | – | – | – | – | – | – | – | – | – |
| CCCCOc1nc2sc(C)nc2c2ccccc12 [5(O-isomer), 5-butoxy-2-methyl-thiazolo[5,4-c]isoquinoline] | 600 mg/kg | – | 50% | 0% | 0% | – | – | – | – | – | – | – | – | – | – | – | – | – | – | – |
| Cc1nc2c3ccccc3c(=O)n(C)c2s1 [Example 1, 2,4-Dimethyl-thiazolo[5,4-c]isoquinoline-5(4H)-one] | – | > 1000 mg/kg | – | – | – | 38% | 46% | 61% | ≥ 40% | 25% | – | – | – | – | – | – | – | – | – | – |
| CCn1c(=O)c2ccccc2c2nc(C)sc21 [Example 2(N-isomer), 4-Ethyl-2-methyl-thiazolo[5,4-c]isoquinoline-5(4H)-one] | 400 mg/kg | – | – | – | – | – | – | – | – | – | 50% | 0% | 0% | 80% | 0% | 0% | practically no influence | – | – | – |
| CCc1nc2c3ccccc3c(=O)n(C)c2s1 [Example 9, 2-Ethyl-4-methyl-thiazolo[5,4-c]isoquinoline-5(4H)-one] | – | 1000 mg/kg | – | – | – | 25% | 31% | 40% | ≥ 40% | – | – | – | – | – | – | – | – | – | – | – |
| Cc1nn(C)c2nc(OCCO)c3ccccc3c12 [Example 20, 5-(2-Hydroxyethoxy)-1,3-dimethyl-3H-pyrazolo[3,4-c]isoquinoline] | > 600 mg/kg | – | 90% | 30% | 0% | – | – | – | – | – | – | – | – | 70% | 30% | 0% | practically no influence | 60% | 10% | 0% |
| CCCCOc1nc2c(c(C)nn2C)c2ccccc12 [Example 24, 5-Butoxy-1,3-dimethyl-3H-pyrazolo[3,4-c]isoquinoline] | > 600 mg/kg | 1000 mg/kg | 100% | 30% | 0% | 26% | 38% | 45% | ≥ 40% | – | – | – | – | 60% | 0% | 0% | practically no influence | – | – | – |
| CCc1nn(C)c2nc(OCCO)c3ccccc3c12 [Example 25, 1-Ethyl-5-hydroxyethoxy-3-methyl-3H-pyrazolo[3,4-c]isoquinoline] | > 600 mg/kg | – | 70% | 0% | 0% | – | – | – | – | – | – | – | – | 50% | 0% | 0% | practically no influence | – | – | – |
| CCc1nn(C)c2nc(OCC(C)=O)c3ccccc3c12 [Example 26, 5-Acetylmethoxy-1-ethyl-3-methyl-3H-pyrazolo[3,4-c]isoquinoline] | > 600 mg/kg | > 1000 mg/kg | 100% | 0% | 0% | 30% | 37% | 43% | ≥ 40% | – | – | – | – | 50% | 0% | 0% | practically no influence | – | – | – |
| Cc1nn(C)c2c1c1ccccc1c(=O)n2CCN1CCN(c2ccccc2)CC1.Cl [Example 38, 1,3-Dimethyl-4-[2-(4-phenyl-1-piperazinyl)ethyl]-3H-pyrazolo[3,4-c]isoquinoline-5(4H)-one hydrochloride] | > 600 mg/kg | – | 100% | 40% | 0% | – | – | – | – | – | – | – | – | 90% | 10% | 0% | practically no influence | – | – | – |
